Patent publication US20050203189A1, “Remedies for chronic kidney diseases” (priority 2002, published 2005)

Columns and labels:
[1] = system: Brain microsomal Na+/Ca2+ exchanger; test: Brain microsomal Na+/Ca2+ exchanger, Na-dependent 45Ca uptake; type: biochemical; conditions: rat brain microsomes; read-out: Inhibitory activity against Na+/Ca2+ exchange (Na-dependent 45Ca uptake), IC50 value, Brain
Method: Method of Measuring for Brain Microsomal Na^+/Ca^2+ Exchanger
Brain microsomes (1.5 mg/mil) obtained from 8-week-old rats were pre-treated with 160 mM NaCl-containing buffer to cause Na loading into membrane vesicles. This suspension was diluted 50-fold with 20 μM ^45CaCl2-containing buffer to induce ^45Ca uptake, followed by dilution with the buffer (0° C.) to stop the reaction. The membrane vesicles were immediately collected on a nitrocellulose filter. Subsequently, ^45Ca trapped inside the membrane vesicles was determined by liquid scintillation counting. The above assay for Na^+/Ca^2+ exchange activity in brain microsomes was performed according to the procedures described in J. Biol. Chem., vol. 257, p. 5111 (1982).

[2] = target: T1, Rat renal cortex-derived BLMVs Na+/Ca2+ exchanger (Rattus norvegicus, UniProt Q01728); test: Rat renal cortex-derived BLMV Na+/Ca2+ exchange activity, Na-dependent 45Ca uptake; type: biochemical; conditions: for IC50: rat renal cortex BLMVs, read-out: Inhibitory activity against Na+/Ca2+ exchange (Na-dependent 45Ca uptake), IC50 value, Renal cortex
T1 construct: BLMVs were prepared from rat renal cortex; from tissue; host or cells: rat renal cortex basolateral membrane vesicles
Method: Preparation of Rat Renal Cortex-Derived BLMVs (Basolateral Membrane Vesicles) and Method of Measuring for their Na^+/Ca^2+ Exchange Activity
BLMVs were prepared from rat renal cortex and assayed for Na^+/Ca^2+ exchange activity according to the procedures described in Am. J. Physiol., vol. 266, p. F785 (1994).
After being excised from rats, the kidneys were placed in ice-cold sucrose buffer ([…], 0.1 mM PMSF, 10 mM Tris-HCl (pH 7.6)) and decapsulated. The isolated cortex was then finely minced in the sucrose buffer and homogenized sequentially with a Dounce-type homogenizer and a Polytron-type homogenizer, followed by centrifugation at 2500 g for 15 minutes to collect the supernatant. Centrifugation was repeated at 24000 g for 20 minutes to collect the white fluffy portion of the pellet. After further addition of the sucrose buffer, the collected fraction was homogenized with a Dounce-type homogenizer, supplemented with Percoll and then centrifuged at 30000 g for 35 minutes to collect the middle layer. After addition of buffer (100 mM KCl, 100 mM mannitol, 5 mM HEPES-Tris (pH 7.4)), centrifugation was carried out at 34000 g for 30 minutes to collect the loose white pellet (BLMVs). The pellet was further suspended in the KCl-mannitol buffer and then centrifuged at 34000 g for 30 minutes to collect the precipitate, which was used for activity assay.
(Method of Measuring for Na^+/Ca^2+ Exchanger (Na-Dependent ^45Ca Uptake))
The BLMVs thus prepared were equilibrated at 37° C. for 10 minutes in pre-equilibration buffer (100 mM NaCl, 40 mM KCl, 1 mM MgSO4, 10 mM glucose, 5 mM HEPES-Tris (pH 7.4)) and then centrifuged at 20000 g for 5 minutes to collect the precipitate, which was then resuspended in the pre-equilibration buffer. Centrifugation was repeated to collect the precipitate, followed by resuspension in the pre-equilibration buffer. […] Subsequently, the filter was washed twice with 2 ml stop solution and then the amount of ^45Ca trapped inside the BLMVs was determined by using liquid scintillation method.

[3] = target: T2, Canine cardiac sarcolemmal vesicle Na+/Ca2+ exchanger (Canis lupus familiaris, UniProt P23685); test: Canine cardiac sarcolemmal vesicle Na+/Ca2+ exchanger, Na-dependent 45Ca uptake; type: biochemical; conditions: canine cardiac sarcolemmal vesicles; read-out: Inhibitory activity against Na+/Ca2+ exchange (Na-dependent 45Ca uptake), IC50 value, Cardiac sarcolemma
T2 construct: Canine cardiac sarcolemmal vesicles (0.5 mg/ml) were prepared by centrifugal fractionation; from tissue; host or cells: canine cardiac sarcolemmal vesicles
Method: Method of Measuring for Canine Cardiac Sarcolemmal Vesicle Na^+/Ca^2+ Exchanger
Canine cardiac sarcolemmal vesicles (0.5 mg/ml) were prepared by centrifugal fractionation as described in Methods enzymology, vol. 157, p. 85 (1988) and suspended in Solution A (20 mM MOPS-Tris (pH 7.4), 160 mM NaCl or KCl), followed by incubation at room temperature for about one hour to cause Na or K loading into the vesicles. This suspension was diluted 50-fold with 20 μM ^45CaCl2-containing buffer to induce ^45Ca uptake, followed by dilution with the buffer (0° C.) to stop the reaction. The membrane vesicles were immediately collected on a nitrocellulose filter. Subsequently, ^45Ca trapped inside the membrane vesicles was determined by liquid scintillation counting. The Na^+/Ca^2+ exchange activity was evaluated by subtracting the value obtained for K loading from the value obtained for Na loading. The above assay for Na^+/Ca^2+ exchange activity in canine cardiac sarcolemmal vesicles was performed according to the procedures described in J. Biol. Chem., vol. 257, p. 5111 (1982).

[4] = system: ZSF-1 rats; test: Kidney protective activity in spontaneous diabetic rats (ZSF-1); type: in vivo, rat; conditions: for Amount of urinary albumin excretion / Amount of urinary protein excretion: ZSF-1 rats
Method: ZSF-1 rats and ZSF-1/lean rats which were control animals (8 weeks old) obtained from The Jackson Laboratory were used for this test. The rats were divided into 5 groups (8 individuals for each group) for the test. • Group I: ZSF-1/lean+solvent orally administered (twice a day) • Group II: ZSF-1+solvent orally administered (twice a day) • Group III: ZSF-1+SEA0400 1 mg/kg orally administered (twice a day) • Group IV: ZSF-1+SEA0400 3 mg/kg orally administered (twice a day) • Group V: ZSF-1+SEA0400 10 mg/kg orally administered (twice a day)
The solvent and SEA0400 were orally administered twice a day (first time at 8:30 to 10:30 and second time at 16:30 to 18:30) for consecutive 8 weeks. Eight weeks after the administration started, each of the rats was placed in a metabolic cage where urine was taken so that the amounts of protein and albumin in urine were measured to observe the effect oil the kidney function. Determination of the amounts of protein and albumin was performed following the description of the above-mentioned references using an autoanalyzer (HITACHI 7060 Automatic Analyzer).

[5] = system: Dahl-salt sensitive (Dahl-S) rats; test: Kidney protective activity in Dahl-salt sensitive rat; type: in vivo; conditions: 10 mg/kg orally twice a day, 6 weeks
Method: This test was conducted following the method described in J. Cardiovascular Pharmacology, Vol. 23, p. 970 (1994). Specifically, procedures are as follows.
Dahl-salt sensitive (Dahl-S) rats and Dahl-salt resistant (Dahl-R) rats as control animals (male, 7 weeks old) were used for the experiment. The rats were divided into 3 groups (6 individuals for each group) for the test. • Group I: Dahl-R+4% NaCl chow+solvent orally administered (twice a day) • Group II: Dahl-S+4% NaCl chow+solvent orally administered (twice a day) • Group III: Dahl-S+4% NaCl chow+SEA0400 10 mg/kg orally administered (twice a day)
Each animal was fed with a 4% NaCl high-salt-containing chow (whereas normal chow contains 0.6% NaCl) and water adlibitum. The solvent and SEA0400 were orally, administered twice a day (first time at 8:30 to 9:30 and second time at 16:30 to 17:30) for consecutive 6 weeks. In 6 weeks after the administration started, each of the rats was placed in a metabolic cage where urine was taken so that the amounts of protein and albumin in urine were measured to observe the effect on the kidney function. Determination of the amounts of protein and albumin in urine was performed following the method described in Bunseki Kagaku, Vol. 32, pp. E379-E386 (1983) and Hypertension, Vol. 40, No. 6, pp. 834-839 (2002) using an autoanalyzer (HITACHI Automatic Analyzer 7060).

SMILES | IC50 [1] [µM] | IC50 [2] [µM] | IC50 [3] [µM] | Inhibitory activity relative to SEA0400, renal cortex-derived Na+/Ca2+ exchange activity ([2]; relative to SEA0400) | Amount of urinary albumin excretion ([4]; 1 mg/kg orally twice a day, 8 weeks (Group III), solvent group 28±5, lean 1±0.1) [mg/day] | Amount of urinary protein excretion ([4]; 1 mg/kg orally twice a day, 8 weeks (Group III), solvent group 58±9, lean 14±1) [mg/day] | Amount of urinary albumin excretion ([4]; 3 mg/kg orally twice a day, 8 weeks (Group IV), solvent group 28±5) [mg/day] | Amount of urinary protein excretion ([4]; 3 mg/kg orally twice a day, 8 weeks (Group IV), solvent group 58±9) [mg/day] | Amount of urinary albumin excretion ([4]; 10 mg/kg orally twice a day, 8 weeks (Group V), solvent group 28±5, significantly lower) [mg/day] | Amount of urinary protein excretion ([4]; 10 mg/kg orally twice a day, 8 weeks (Group V), solvent group 58±9, significantly lower) [mg/day] | Kidney protective activity (effect on increase in urinary protein and albumin excretion) ([4]; spontaneous diabetic rats (ZSF-1), orally twice a day, 8 weeks) | Kidney protective activity (effect on increase in urinary protein and albumin excretion) [5] | Amount of urinary albumin excretion ([5]; 4% NaCl chow, solvent group 109±14, Dahl-R 2±1) [mg/day] | Amount of urinary protein excretion ([5]; 4% NaCl chow, solvent group 144±11, Dahl-R 23±2) [mg/day]
N=C(N)SCCc1ccc(OCc2ccc([N+](=O)[O-])cc2)cc1 [K-BR7943, 2-[2-[4-[nitrobenzyloxy]phenyl]ethyl]isothio-ureamethanesulfonate, reference compound] | 11 | 6.8 | 7 |  |  |  |  |  |  |  |  |  |  | 
O=[N+]([O-])c1cccnc1Oc1ccc(OCc2ccc(F)cc2)cc1 [SEA0064] |  |  |  | about 0.07 fold |  |  |  |  |  |  |  |  |  | 
CCOc1ccc(Oc2ccc(OCc3cc(F)ccc3F)cc2)c(N)c1 [SEA0400, 2-[4-[(2,5-difluorophenyl)methoxy]phenoxy]-5-ethoxyaniline] | 0.2 | 0.02 | 0.09 |  | 20 ± 5 | 40 ± 8 | 17 ± 5 | 37 ± 7 | 9 ± 2 | 29 ± 5 | significantly inhibited the increase in urinary protein and albumin excretion | significantly inhibited the increase in urinary protein and albumin excretion | 58 ± 8 | 91 ± 12
